Experimental data taken from publication PMC3269530 (Journal of Molecular Biology, 2011).

Legend:
[1] = tested on: ArfA-c(D236A); format: binding, M. tuberculosis; conditions: pH 7
[2] = tested on: R277E mutant of ArfA-c(D236A); format: binding, M. tuberculosis

uridine-5'-diphosphate–MurNAc–L-Ala–D-γ-Glu–m-DAP–D-Ala– D-Ala [UMDP]
peak changes in 1H/15N NMR spectrum on addition of peptide [1]: several peak frequency and intensity changes
changes in the NMR spectrum of the R277E mutant [2]: no changes were observed
